Measurements from patent US9422521B2, “Differentiation of pluripotent stem cells with a kinase inhibitor or PGI2” (ES Cell International Pte Ltd., priority 2005, dated 2016).
“Also recorded” adds a separate entry of the source.

Assays:
hES cells [1] = assay: qRT-PCR of cardiac and lineage marker genes in differentiating EBs; type: cell-based, human
Method: RNA extraction: EBs at the end of the twelve day period or as indicated in the text were harvested. All EBs from 3 wells were pooled and washed once in PBS^−. Trizol (Invitrogen) was added before freezing the EBs at −80° C. to enhance cell lysis. Frozen samples were thawed and harshly mixed. Chloroform was added to the sample and incubated for 3 min at room temperature. The sample was centrifuged for 15 min at 13000 rpm at 4° C. and the aqueous phase collected. An equal volume of 70% ethanol was added before the sample was loaded onto an RNeasy mini column (Qiagen). The column was centrifuged for 15 sec at ≧8000 g. The rest of the purification steps were performed according to manufacturer's instructions. RNA was eluted in RNase-free water. 5 μg of the RNA sample were then treated with DNase (Invitrogen) in a volume of 50 μl. The mixture was incubated at room temperature for 30 min and heat inactivated for 10 min at 80° C. before cooling rapidly on ice.
Reverse transcriptase: 5 μg of total RNA was mixed with 2 μl of 3 μg/μl random primers (Invitrogen) in a final volume of 100 μl. 75 μl were reversed transcribed (BioLabs), the remaining 25 μl served as a negative control. Samples were incubated for 1 hour at 37° C. before the reaction was terminated for 5 min at 95° C.
Real-time PCR: The PCR reaction was performed on 100 ng of cDNA, with 15 μl of 2× IQ™ SYBR® Green Supermix (Biorad) in a final reaction volume of 30 μl. To minimize variations in the triplicates, a master mix was prepared containing all reaction components except cDNA. PCR was performed on an iCycler™ (Biorad), annealing at 58° C. for 30 sec, extension at 72° C. for 45 sec, 40 cycles in total. Relative expression values were obtained by normalizing CT values of the tested genes in comparison with CT values of the housekeeping gene α-Actin using the ΔΔ CT method (19). The samples were subjected to PCR amplification with human gene primers including: […]
The samples were subjected to PCR amplification with human gene primers including: […]
The samples were subjected to PCR amplification with human gene primers including MESP1 (sense primer: […]; antisense primer: […]).

hES cells [2] = details: Vitamin C added to the END2-hES co-culture system; cited from earlier work
hES cells [3] = assay: hES differentiation as embryoid bodies (EBs) in suspension culture, scoring of beating EBs; type: cell-based, human; details: for number of EBs with beating foci: 5 μM in END2-CM, added early (during or shortly after EB formation), day 12, vs END2-CM alone
Method: This method describes hES differentiation through the formation of embryoid bodies (EB) from hES cells grown on MEF. EBs can also be generated from hES grown in feeder free systems. Formed EBs were then cultured in respective media such as SF or END2-CM. […] Enzymatically passaged hES cells grown on feeder cells were washed once with PBS^+ and treated with Collagenase IV (1 mg/ml) for 3-4 min at 37° C. The Collagenase IV solution was replaced by DMEM and the cells were mechanically dissociated with a pipette tip. Cells were then harvested using a cell scraper and the cell suspension was transferred to a 50 ml tube (Falcon). Cell clumps were collected by gravity and the supernatant was aspirated. Cells were resuspended in fresh DMEM medium aiming to uniformly disperse the cell clumps in the suspension. An equal volume of the cell suspension was then transferred to ultra low attachment plates (Costar). […] Alternatively, cells can be seeded into plates under conditions supporting cell adherence to induce differentiation of hES attached to a surface. In suspension culture, EBs were formed in ultra low attachment plates in SF medium over night. After over night incubation SF medium was replace by fresh SF medium or END2-CM respectively for further differentiation. Subsequent medium changes were performed every 3-4 days. Usually, cells were cultured over a period of 12-13 days before the visual analysis of the proportion of beating EBs under a microscope was performed followed by cell collection for additional readouts. Multiple beating areas on single EBs were not counted separately. […] Cell harvest and analysis at time points other then 12-13 days after EB formation is indicated in the respective examples and figures of this embodiment. […] An average value per well was calculated and presented. hES differentiation in suspension culture: EBs were formed in ultra low attachment plates in SF medium over night. After over night incubation SF medium was replace by fresh SF medium or END2-CM. […] Subsequent medium changes were performed every 3-4 days. Usually, cells were cultured over a period of 12-13 days. […] Medium change was performed at day 3, 6 and 9 after EB formation.

hES cells [4] = assay: Quantification of cardiomyocytes by Cytospin and MF20 staining; type: cell-based, human
Method: (§1) To more accurately determine the number of cardiomyocytes in the differentiated cell population, EBs were collected, washed in PBS^− and incubated with 0.05% Trypsin for 5 min at 37° C. Cell clumps were triturated and incubated for another 5 min at 37° C. Trypsin activity was inactivated with serum containing media and cells were collected via centrifugation at 2500 rpm for 4 min at 4° C. The cell pellet was resuspended in PBS for cell count and cytospun onto glass slides at 500 rpm for 5 min at low acceleration using 1×10^5 cells. Cells were stained immediately (see previous example) and a cell count performed.
(§2) Readouts were performed on day 13: the percentage of beating EBs was defined, the average cell number per well was counted via a cytometer after EBs dissociation with trypsin, the percentage of cardiomyocytes was divined via cytospin followed by cardiomyocyte specific anti α-Myosin Heavy Chain stain (MF20 antibody), and RNA was harvest for qRT-PCR.

hES cells [5] = assay: Cell count per well after EB differentiation
Method: as §1, §2

hES cells [6] = assay: EB morphology, H&E staining on paraffin sections; type: cell-based, human
Method: Paraffin sections: Beating EBs were collected and fixed for 15 min in 10% formalin at room temperature. EBs were then embedded in 1.5% agarose and dehydrated through 70% to 100% ethanol with a last incubation in xylene. The agarose block was then embedded in paraffin. 5 μm thick sections were cut in ribbons, floated on a warm water bath of 45° C., mounted on slides, and left to air dry at 37° C. overnight.
For hES culture on human feeder cells, see Example 2. For Immunohistochemistry performed here, see example 3. H&E staining on Paraffin sections was performed at the BSF facility (Biopolis).

[7] = tested on: JNK and/or p42/p44 MAP kinase; details: cited from earlier work
hES cells [8] = assay: hES differentiation as embryoid bodies (EBs) in suspension culture, scoring of beating EBs; type: cell-based; details: hES maintained on human feeder (HF), 12 days; END2-CM only, or SB203580 at 5 μM in END2-CM
[9] = tested on: mouse embryonic carcinoma cell line P19; details: cited from earlier work
[10] = END2-CM supplemented with 0.1 mM Vitamin C, day 12
[11] = 0.2 μM and 2 μM in bSF, 12 days
[12] = high concentration (20 μM) in END2-CM
[13] = inhibitor added day 6 onwards, END2-CM
[14] = Example 5, END2-CM alone, or SB203580 at 5 μM in END2-CM

SMILES: O=C1O[C@H]([C@@H](O)CO)C(O)=C1O [Vitamin C]
- expression of cardiac specific markers ANF or α-MHC (hES cells [1]; [10]): increased
- increase in the number of beating areas (hES cells [2]): up to 40%
- increase in the number of beating EBs (hES cells [3]; [10]): up to 20%

SMILES: CC(=O)O [AA, Acetic Acid]
- relative expression of α-MHC (hES cells [1]; 0.5 μM in bSFS vs bSFS alone): about the same
- relative expression of α-MHC (hES cells [1]; 5 μM in bSFS vs bSFS alone): slide increase
- fold increase in relative α-MHC expression (hES cells [1]; AA at a 0.5 μM concentration in bSFS (second statement)): about 2 fold
- proportion of cardiomyocytes (hES cells [4]; 0.5 μM or 5 μM AA in bSFS, day 13): slightly increased
- percentage of beating EBs on day 13 (hES cells [3]; 0.5 μM in bSFS vs bSFS alone): about the same
- percentage of beating EBs on day 13 (hES cells [3]; 5 μM in bSFS vs bSFS alone): slide increase
- day 13 cell count per well of a 6-well plate (hES cells [5]; bSFS + 0.5 μM Acetic Acid (AA)): 1.18 × 10^6
- day 13 cell count per well of a 6-well plate (hES cells [5]; bSFS + 5.0 μM AA): 1.03 × 10^6

SMILES: CCCCC[C@H](O)/C=C/[C@@H]1[C@H]2C/C(=C/CCCC(=O)[O-])O[C@H]2C[C@H]1O.[Na+] [PGI2, (5Z, 9α, 11α, 13E, 15S)-6,9-Epoxy-11,15-dihydroxyprosta-5,13-dien-1-oic acid Sodium salt]
- fold higher relative expression of the cardiac marker α-MHC (hES cells [1]; [11]): 2-3 fold
- fold higher percentage of beating EBs (hES cells [3]; [11]): 3 fold
- EB beating levels and marker gene expression levels compared to END2-CM (hES cells [3]; bSF with PGI2 at 0.2 μM and 2 μM): equivalent or even higher

SMILES: Oc1ccc(-c2nc(-c3ccncc3)c(-c3ccc(F)cc3)[nH]2)cc1 [SB202190]
- number of EBs with beating foci (hES cells [3]): the same effect; also recorded: comparable cardiogenic effect

SMILES: C[S+]([O-])c1ccc(-c2nc(-c3ccc(F)cc3)c(-c3ccncc3)[nH]2)cc1 (centres unmarked) [SB203580, 4-(4-Fluorophenyl)-2-(4-methylsulfinylphenyl)-5-(4-pyridyl)1H-imidazole]
- expression of cardiac markers at day 12 (hES cells [1]; 5 μM from the start in END2-CM vs END2-CM alone): increased expression
- Brachyury expression around day 4 (hES cells [1]; 5 μM in END2-CM): strong upregulation
- expression of skeletal (Myf5), endoderm (Sox17) or neuroectoderm (Sox1) markers (hES cells [1]; 5 μM in END2-CM): did not induce expression
- expression of the cardiac markers Nkx2.5 and α-MHC at day 12 (hES cells [1]; 5 μM in END2-CM): higher expression
- Brachyury expression (hES cells [1]; 5 and 20 μM in END2-CM): upregulated
- Sox1 expression (hES cells [1]; END2-CM supplemented with 25 μM): significantly expressed
- α-MHC expression at day 12 (hES cells [1]; Example 7, 5 μM in END2-CM): increased
- expression of precardiac mesoderm (Nkx2.5) and cardiac marker genes (hES cells [1]; Example 7, 20 μM in END2-CM): reduced
- Sox1 expression (hES cells [1]; SF medium, from 10 μM onwards): upregulated
- Sox1 expression (hES cells [1]; [12]): strongly upregulated
- Sox17 expression at day 12 (hES cells [1]; [12]): higher expressed
- Mesp1 expression (hES cells [1]; higher concentration (20 μM) in END2-CM): comparable to EBs grown in SF medium
- expression of α-MHC (hES cells [1]; highest concentration (25 μM) in END2-CM): barely detectable
- expression of α-MHC at day 12 (hES cells [1]; [13]): no effect
- Mesp1 expression (hES cells [1]; low concentration (5 μM) in END2-CM): higher expressed
- expression of α-MHC (hES cells [1]; over 10 μM in END2-CM): declined
- morphology of EBs (hES cells [6]; higher concentrations in END2-CM, 12 days): more compact and do not form epithelial visceral endoderm
- appearance of neural progenitor population in EBs (hES cells [6]; higher doses (>5 μM-25 μM), END2 CM): morphological uniform neuroepithelial EBs with clear rosette structure formed
- neurite-like outgrowth of attached EBs (hES cells [6]; serum free condition + 10 μM, 12 days): high number of neurite-like outgrowth
- inhibition of JNK and/or p42/p44 MAP kinase [7]: does not inhibit
- percentage of beating EBs (hES cells [8]): 60-87%
- percentage of cardiomyocytes (hES cells [4]; 5 μM in END2-CM, day 13): slightly elevated
- proportion of cardiomyocytes (hES cells [4]; 5 μM in bSFS, day 13): almost tripled
- cardiomyocytes (MF-20 positive) in EBs at day 12 (hES cells [4]; [14]): 21.7%
- cardiomyocyte differentiation in P19 [9]: prevented cardiomyocyte differentiation
- number of EBs with beating foci (hES cells [3]): increased
- beating (hES cells [3]; 15 μM or more in END2-CM): declined
- formation of beating foci at day 12 (hES cells [3]; 20 μM in END2-CM): almost completely suppressed
- beating (hES cells [3]; 25 μM in END2-CM): no beating detectable
- size of the contracting area and beating frequency of beating foci (hES cells [3]; END2-CM with SB203580): positive effect
- beating EBs at day 12 (hES cells [3]; [14]): 78%
- beating foci on EBs (hES cells [3]; SF medium supplemented with 5 μM): beating foci were detected
- number of beating foci per EB at day 12 (hES cells [3]; added during the first 3 days of differentiation): remarkable increase
- percentage of beating EBs (hES cells [3]; hES batches less responsive to END2-CM (below 50% beating), SB203580 in END2-CM): more than 60%
- number of beating foci (hES cells [3]; [13]): no effect
- number of beating foci (hES cells [3]; up to 10 μM in END2-CM, 12 days, vs non-supplemented END2-CM): increase
- day 13 cell count per well of a 6-well plate (hES cells [5]; CM + 5 μM SB203580): 3.63 × 10^6
- total cell number at day 12 (hES cells [5]; Example 5, END2-CM alone, or END2-CM supplemented with 5 μM SB203580): 1.16×10^6 cells/well
